What is called Cmax is the highest concentration seen after dosing. The Tmax is the time from dosing to the highest level.

We go through eight compounds from patent publication US20100298371A1, “PROCESS FOR PREPARING CHEMICALLY AND CHIRALLY PURE SOLIFENACIN BASE AND ITS SALTS” (priority 2007, published 2010).

Structures can show the parent of a compound that is named as a salt. Where two headings read alike, the source gives them in different places.

A short description of data set [1]: Pharmacokinetic profile of Solifenacin salts in fasted male Wistar rats. Particulars: for absorption / rate of absorption: compared to the succinate salt. The class given is in vivo.
Data set [2] in a line: Intrinsic dissolution rate of various salts of Solifenacin. It counts as physicochemical.
A short description of data set [3]: Stability study on storage (40° C. ± 2° C./75% ± 5% RH). It counts as physicochemical. The procedure:
The complete x-ray powder spectrum, was recorded with a Rigaku D/Max 2200 VPC X-ray powder diffractometer model using copper radiation. The X-ray diffraction pattern was recorded by keeping the instrument parameters as below: • X-ray: Cu/40 kv/30 mA, Diverging slit: 1°, Scattering slit: 1°, Receiving slit: 0.15 mm, Monochromator RS: 0.8 mm, Counter: Scintillation counter,
Solifenacin base and its salts were analyzed for purity by analytical HPLC at λ^max 220 nm using column J'sphere-ODS, 150 mm×4.6 mm×4μ or its equivalent on AGILENT 1100 series under the following conditions, • Detector: UV absorption photometer Wave length: 220 nm Column temp.: 30° C. • Flow rate: 1.0 mL/min. Injection Vol.: 5 μL • Mobile Phase (gradient elution): 0.05 TFA buffer in water:Acetonitrile
Several of the Solifenacin salts prepared according to the present invention has chemical and polymorphic stability on storage.

Where [4] appears, read: Table 3b, fasted male Wistar rats, dose 30 mg/kg, mean, succinate salt.
[5] abbreviates: Table 3a, fasted male Wistar rats, dose 30 mg/kg, mean.
Where [6] appears, read: Table 3b, fasted male Wistar rats, dose 30 mg/kg, mean.
Setting [7] is: fasted male Wistar rats, ratio to succinate.
Where [8] appears, read: After 3 Month at 40° C. ± 2° C./75% ± 5% RH.
Setting [9] is: Table 3b, fasted male Wistar rats, dose 30 mg/kg, mean, hydrochloride salt.

Consider `O=C(O[C@H]1CN2CCC1CC2)N1CCc2ccccc2[C@@H]1c1ccccc1` [Solifenacin Succinate, (+)-(1S,3′R)-quinuclidin-3′-yl 1-phenyl-1,2,3,4-tetrahydro-isoquinoline-2-carboxylate succinate salt, reference compound], for which, in data set [1] (setting [4]), the “AUC (0-inf)” value came to 76.69 ng·h/mL, the “AUC (0-t)” value was 60.09 ng·h/mL, the Cmax was 23.72 ng/mL and the Tmax stood at 2.67 h. The “Tmax (absorption, as stated in text)” value in data set [1] (text summary of Table 3b, fasted male Wistar rats, succinate salt) stood at 6.67 h. For the same compound, the Intrinsic dissolution rate in data set [2] (pH 1.2 HCl, succinate salt) worked out at 10.666 mg/min · cm^2. Moreover, in data set [2] (pH 4.5 Acetate Buffer, succinate salt), the Intrinsic dissolution rate stood at 9.845 mg/min · cm^2. Besides, in data set [2] (pH 6.8 Phosphate Buffer, succinate salt), the Intrinsic dissolution rate came out at 11.002 mg/min · cm^2.

In the case of “(+)-(1S,3′R)-quinuclidin-3′-yl 1-phenyl-1,2,3,4-tetrahydro-isoquinoline-2-carboxylate oxalate salt [Solifenacin Oxalate]”, in data set [1] (setting [5]), the “AUC (0-inf)” value was determined as 345.79 ng·h/mL, the “AUC (0-t)” value is 321.28 ng·h/mL, the Cmax is 252.38 ng/mL and the Kel stood at 0.26 h⁻¹. Besides, in data set [1] (setting [5]), the T1/2 came out at 4.76 h and the Tmax worked out at 0.37 h. Also, in data set [1] (setting [6]), the “AUC (0-inf)” value is 78.78 ng·h/mL, the “AUC (0-t)” value turned out to be 49.77 ng·h/mL, the Cmax came to 9.10 ng/mL and the Kel came out at 0.18 h⁻¹. Also, in data set [1] (setting [6]), the T1/2 was 6.19 h and the Tmax was 1.62 h. Besides, in data set [1] (setting [7]), the “higher plasma concentration (Bio available, Cmax) compared to Solifenacin succinate salt” value was approximately 10 fold and the “higher plasma exposure compared to Solifenacin succinate salt” value came out at 5 times. For the same compound, in data set [1] (in words), the “T1/2 value compared to the succinate salt” value is listed as “higher” and the “absorption / rate of absorption” value was “rapid absorption”. In addition, the Intrinsic dissolution rate in data set [2] (pH 1.2 HCl) is 6.5822 mg/min · cm^2. Further, the Intrinsic dissolution rate in data set [2] (pH 4.5 Acetate Buffer) stood at 6.5084 mg/min · cm^2. The Intrinsic dissolution rate in data set [2] (pH 6.8 Phosphate Buffer) is recorded as 4.9096 mg/min · cm^2. For the same compound, in data set [3] (setting [8]), the Description entry is reported as “Off white colored”, the “Polymorphism XRD” value was “No Change”, the “Purity (By HPLC)” value is listed as 99.36% and the “Water (by KFR)” value is recorded as 0.33%. Besides, in data set [3] (Initial), the Description result is listed as “Off white colored powder”, the “Polymorphism XRD” value is reported as “Crystalline pattern”, the “Purity (By HPLC)” value is reported as 99.49% and the “Water (by KFR)” value was found to be 0.18%.

With `O=C(O[C@H]1CN2CCC1CC2)N1CCc2ccccc2[C@@H]1c1ccccc1.O=C1O[C@H]([C@@H](O)CO)C(O)=C1O` [Solifenacin Ascorbate], in data set [1] (setting [6]), the “AUC (0-inf)” value is 96.99 ng·h/mL, the “AUC (0-t)” value is 85.66 ng·h/mL, the Cmax is 29.04 ng/mL and the Tmax turned out to be 1.30 h. For the same compound, the “absorption / rate of absorption” value in data set [1] (in words) was “faster”. For the same compound, the “better absorption than the succinate salt” value in data set [1] (relative to succinate) was determined as 20%.

On to `O=C(O[C@H]1CN2CCC1CC2)N1CCc2ccccc2[C@@H]1c1ccccc1` [Solifenacin Hydrochloride, (+)-(1S,3′R)-quinuclidin-3′-yl 1-phenyl-1,2,3,4-tetrahydro-isoquinoline-2-carboxylate hydrochloride salt], for which the “AUC (0-inf)” value is 59.52 ng·h/mL in data set [1] (setting [9]) and 158 ng·h/mL in data set [1] (male, Wistar, rat, plasma, 30 mg/kg, Table 3a, fasted male Wistar rats, dose 30 mg/kg, mean, read-out: AUC (0-inf)). In addition, the “AUC (0-t)” value stood at 50.54 ng·h/mL in data set [1] (setting [9]) and 147 ng·h/mL in data set [1] (male, Wistar, rat, plasma, 30 mg/kg, Table 3a, fasted male Wistar rats, dose 30 mg/kg, mean, read-out: AUC (0-t)). For the same compound, the Cmax in data set [1] (setting [9]) is 13.67 ng/mL; in data set [1] (male, Wistar, rat, plasma, 30 mg/kg, Table 3a, fasted male Wistar rats, dose 30 mg/kg, mean, read-out: Cmax), 94.4 ng/mL. The Tmax in data set [1] (setting [9]) stood at 1.05 h; in data set [1] (male, Wistar, rat, plasma, 30 mg/kg, Table 3a, fasted male Wistar rats, dose 30 mg/kg, mean, read-out: Tmax), 0.6 h. Moreover, the Vd in data set [1] (rat, plasma, Table 3a, fasted male Wistar rats, dose 30 mg/kg, mean, read-out: Vz) was found to be 1530 L. The Intrinsic dissolution rate turned out to be 6.6836 mg/min · cm^2 in data set [2] (pH 1.2 HCl, listed as HCl, hydrochloride salt); 21.08 mg/min · cm^2 in data set [2] (pH 4.5 Acetate Buffer, listed as HCl, hydrochloride salt); 20.262 mg/min · cm^2 in data set [2] (pH 6.8 Phosphate Buffer, listed as HCl, hydrochloride salt). Also, the Description result in data set [3] (setting [8]) was “Off white colored”; in data set [3] (Initial) it was “Off white colored powder”. In addition, the “Polymorphism XRD” value in data set [3] (setting [8]) is recorded as “No Change”; in data set [3] (Initial), “Crystalline pattern”. Also, the “Purity (By HPLC)” value in data set [3] (setting [8]) was 99.6%; in data set [3] (Initial) it was 99.54%. In addition, the figures for the “Water (by KFR)” value in data set [3] (setting [8]) and in data set [3] (Initial) were 0.32% and 0.14%, respectively.

As to `O=C(O[C@H]1CN2CCC1CC2)N1CCc2ccccc2[C@@H]1c1ccccc1` [Solifenacin Hydrobromide, Solifenacin hydrobromide], in data set [1] (Table 3b, fasted male Wistar rats, dose 30 mg/kg, mean, hydrobromide), the Tmax worked out at 1.27 h. Besides, the AUC (0-inf) in data set [1] (male, Wistar, rat, plasma, 30 mg/kg, Table 3b, fasted male Wistar rats, dose 30 mg/kg, mean, read-out: AUC (0-inf)) amounted to 74 ng·h/mL. For the same compound, the AUC (0-t) in data set [1] (male, Wistar, rat, plasma, 30 mg/kg, Table 3b, fasted male Wistar rats, dose 30 mg/kg, mean, read-out: AUC (0-t)) amounted to 59.9 ng·h/mL. In data set [1] (male, Wistar, rat, plasma, 30 mg/kg, Table 3b, fasted male Wistar rats, dose 30 mg/kg, mean, read-out: Cmax), the Cmax was found to be 14.1 ng/mL.

In the case of “(+)-(1S,3′R)-quinuclidin-3′-yl 1-phenyl-1,2,3,4-tetrahydro-isoquinoline-2-carboxylate besylate salt [Solifenacin Besylate]”, in data set [1] (setting [6]), the “AUC (0-inf)” value stood at 49.27 ng·h/mL, the “AUC (0-t)” value turned out to be 45.54 ng·h/mL, the Cmax came out at 12.84 ng/mL and the Kel is 0.36 h⁻¹. Besides, in data set [1] (setting [6]), the T1/2 is 1.95 h and the Tmax stood at 1.73 h.

Take `O=C(O)c1cc(O)ccc1O.O=C(O[C@H]1CN2CCC1CC2)N1CCc2ccccc2[C@@H]1c1ccccc1` [Solifenacin Gentisate, (+)-(1S,3′R)-quinuclidin-3′-yl 1-phenyl-1,2,3,4-tetrahydro-isoquinoline-2-carboxylate gentisate salt]: in data set [1] (setting [5]), the “AUC (0-inf)” value came out at 74.19 ng·h/mL, the “AUC (0-t)” value was found to be 58.97 ng·h/mL, the Cmax was 30.66 ng/mL and the Tmax worked out at 1.70 h. In data set [1] (setting [6]), the “AUC (0-inf)” value came to 74.19 ng·h/mL, the “AUC (0-t)” value was found to be 58.97 ng·h/mL, the Cmax turned out to be 30.66 ng/mL and the Tmax was 1.70 h. In addition, in data set [1] (in words), the “peak plasma concentrations compared with Solifenacin succinate” value is listed as “comparable”. In addition, the Intrinsic dissolution rate in data set [2] (pH 1.2 HCl) was 6.845 mg/min · cm^2. Further, the Intrinsic dissolution rate in data set [2] (pH 4.5 Acetate Buffer) stood at 0.2356 mg/min · cm^2. In data set [2] (pH 6.8 Phosphate Buffer), the Intrinsic dissolution rate was 0.4932 mg/min · cm^2. Also, in data set [3] (setting [8]), the Description entry is “Off white colored”, the “Polymorphism XRD” value is “No Change”, the “Purity (By HPLC)” value is 99.46% and the “Water (by KFR)” value worked out at 0.29%. Further, in data set [3] (Initial), the Description entry is listed as “Off white colored powder”, the “Polymorphism XRD” value is given as “Crystalline pattern”, the “Purity (By HPLC)” value worked out at 99.63% and the “Water (by KFR)” value is recorded as 0.16%.

Consider Solifenacin phosphate, for which, in data set [1] (setting [6]), the “AUC (0-inf)” value was found to be 57.63 ng·h/mL, the “AUC (0-t)” value worked out at 50.58 ng·h/mL, the maximum concentration (Cmax) amounted to 12.63 ng/mL and the Kel was determined as 0.29 h⁻¹. Moreover, in data set [1] (setting [6]), the T1/2 amounted to 2.43 h and the Tmax was determined as 1.00 h.
